Laboratory results as given in patent US12569499B2, “Intravenous formulations of RK-33” (NATSAR PHARMACEUTICALS, INC., priority 2021, dated 2026).
Converted amounts (≈) assume the structure as drawn.

Experiments:
[1] = Formulation appearance (color, visual precipitation, clarity); type: physicochemical; conditions: with 50% PEG 200 and 4% HPβCD
Experimental: RK-33 formulations comprising of various combinations of solvents and polymers were prepared and analyzed for color, visual precipitation and clarity.
Formulations comprising of various combinations of solvents and polymers were prepared with an intralipid emulsion used to provide calories to patients who receive an injection into the vein. The prepared formulations were then analyzed for color, visual precipitation and clarity.
Formulations comprising of various combinations of solvents and polymers, including Captisol®, were prepared. The formulations were analyzed for color, visual precipitation and clarity.

tumor cells = conditions: sarcoma, breast, prostate, colorectal, lung, medulloblastoma; cited from earlier work
DDX3 = DDX3 (Homo sapiens, UniProt O00571); conditions: Oncogene 27(28): 3912-3922 (2008); cited from earlier work
Chain of DDX3 (O00571 whole entry): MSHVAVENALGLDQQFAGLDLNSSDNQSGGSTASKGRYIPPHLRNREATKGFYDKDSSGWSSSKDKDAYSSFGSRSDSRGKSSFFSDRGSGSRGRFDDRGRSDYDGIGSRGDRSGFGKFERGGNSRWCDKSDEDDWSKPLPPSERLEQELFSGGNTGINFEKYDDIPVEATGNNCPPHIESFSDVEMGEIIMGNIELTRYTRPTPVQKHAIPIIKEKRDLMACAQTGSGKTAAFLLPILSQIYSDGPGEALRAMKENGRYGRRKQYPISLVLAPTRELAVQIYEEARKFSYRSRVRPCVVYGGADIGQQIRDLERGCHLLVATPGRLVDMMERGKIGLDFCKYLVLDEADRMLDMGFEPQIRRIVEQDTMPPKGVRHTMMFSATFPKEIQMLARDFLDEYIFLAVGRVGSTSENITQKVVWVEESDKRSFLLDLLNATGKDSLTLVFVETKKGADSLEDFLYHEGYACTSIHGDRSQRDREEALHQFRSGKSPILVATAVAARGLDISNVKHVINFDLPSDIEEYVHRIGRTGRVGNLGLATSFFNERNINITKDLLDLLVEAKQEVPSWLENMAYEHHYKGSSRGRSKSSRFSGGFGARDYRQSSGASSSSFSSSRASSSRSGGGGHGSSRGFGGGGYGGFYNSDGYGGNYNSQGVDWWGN

[2] = Qualitative solubility of RK-33 in various solubilizers; type: physicochemical; conditions: for solubility: thermodynamic from solid
Experimental: The degree of solubility of RK-33 in various solubilizers were tested. RK-33 was added to the solubilizer and observed for formation of homogenous molecular dispersion and physical appearance.

RK-33 formulation concentration achieved [1]: 2.5 mg/mL
solubility ([2]; aqueous buffer, solvent Water (pH 4)): < 1000 µg/mL
solubility ([2]; aqueous buffer, solvent Water (pH 8)): < 1000 µg/mL
solubility ([2]; aqueous buffer, solvent Water (pH 10)): < 1000 µg/mL
solubility ([2]; oil or lipid, solvent Corn oil): < 1000 µg/mL
solubility ([2]; oil or lipid, solvent Gelucire 44/14): < 1000 µg/mL
solubility ([2]; oil or lipid, solvent Labrafil 1944CS): < 1000 µg/mL
solubility ([2]; oil or lipid, solvent Miglyol 810): < 1000 µg/mL
solubility ([2]; oil or lipid, solvent Oleic acid): < 1000 µg/mL
solubility ([2]; oil or lipid, solvent Olive oil): < 1000 µg/mL
solubility ([2]; organic solvent or mixture, solvent Benzyl alcohol): > 250000 µg/mL
solubility ([2]; organic solvent or mixture, solvent DMA): > 100000 µg/mL
solubility ([2]; organic solvent or mixture, solvent DMSO): > 100000 µg/mL
solubility ([2]; organic solvent or mixture, solvent Ethanol): < 1000 µg/mL
solubility ([2]; organic solvent or mixture, solvent Glycerin): < 1000 µg/mL
solubility ([2]; organic solvent or mixture, solvent Glycerol formal): > 75000 µg/mL
solubility ([2]; organic solvent or mixture, solvent NMP): > 100000 µg/mL
solubility ([2]; organic solvent or mixture, solvent PEG 200): ~12000 µg/mL (≈ 28000 µM)
solubility ([2]; organic solvent or mixture, solvent PEG300): ~10000 µg/mL (≈ 23300 µM)
solubility ([2]; organic solvent or mixture, solvent PEG 400): 5000 to 10000 µg/mL (≈ 11700 to 23300 µM)
solubility ([2]; organic solvent or mixture, solvent PG): 1000 to 5000 µg/mL (≈ 2330 to 11700 µM)
solubility ([2]; simulated gastric fluid, solvent Water (pH 1.6)): < 1000 µg/mL
Observation ([2]; solvent Benzyl alcohol): Clear, yellow colored solution
Observation ([2]; solvent Corn oil): Dispersion
Observation ([2]; solvent DMA): Clear, yellow colored solution
Observation ([2]; solvent DMSO): Clear, yellow colored solution
Observation ([2]; solvent Ethanol): Yellow dispersion
Observation ([2]; solvent Gelucire 44/14): Dispersion
Observation ([2]; solvent Glycerin): Dispersion
Observation ([2]; solvent Glycerol formal): Clear, yellow colored solution
Observation ([2]; solvent Labrafil 1944CS): Dispersion
Observation ([2]; solvent Miglyol 810): Dispersion
Observation ([2]; solvent NMP): Clear, yellow colored solution
Observation ([2]; solvent Oleic acid): Dispersion
Observation ([2]; solvent Olive oil): Dispersion
Observation ([2]; solvent PEG 200): Clear, yellow colored solution
Observation ([2]; solvent PEG300): Clear, yellow colored solution
Observation ([2]; solvent PEG 400): Clear, yellow colored solution
Observation ([2]; solvent PG): Clear, yellow colored solution
Observation ([2]; solvent Water): Poor wettability
Observation ([2]; solvent Water (pH 1.6)): Poor wettability
Observation ([2]; solvent Water (pH 4)): Poor wettability
Observation ([2]; solvent Water (pH 8)): Poor wettability
Observation ([2]; solvent Water (pH 10)): Poor wettability
solubility ([2]; solvent Water): < 1000 µg/mL
SMILES: COc1ccc(Cn2c3ncnc4c(ncn4Cc4ccc(OC)cc4)c-3nc2=O)cc1 [RK-33]
Inhibiting the growth of tumor cells (tumor cells): effective results in inhibiting the growth of tumor cells
Effect of targeting DDX3 on cells (DDX3): promotes cell death
